Results taken from patent US6028053A, “Peptide inhibitors of a phosphotyrosine-binding domain containing protein” (Mount Sinai Hospital Corporation, priority 1998, dated 2000).
Square brackets hold non-standard residues; d marks the D form. Peptide text beside a SMILES is read from it. pY = N[C@@H](Cc1ccc(OP(=O)(O)O)cc1)C(=O)O

Each compound was assayed against T1, Shc PTB domain (Homo sapiens, UniProt P29353) (assay: Surface plasmon resonance competition of GST-Shc PTB domain binding to immobilized polyoma middle T antigen phosphopeptide). Settings: not given.
T1 construct: containing 1 μM GST-Shc PTB domain fusion protein; made in house
T1 sequence (P29353 156-339 limits assumed): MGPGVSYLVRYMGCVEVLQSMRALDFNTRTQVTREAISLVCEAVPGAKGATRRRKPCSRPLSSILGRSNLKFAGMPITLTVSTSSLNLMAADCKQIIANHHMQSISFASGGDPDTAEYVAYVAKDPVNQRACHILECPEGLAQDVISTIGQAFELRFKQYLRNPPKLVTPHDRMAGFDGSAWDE
Experimental: Surface plasmon resonance analysis was carried out using a Biacore apparatus (Pharmacia Biosensor) as described previously (Puil et al., 1994). The peptide L-S-L-L-S-N-P-T-p.Y-S-V-M-R-S-K (SEQ ID NO:23) was immobilized to a biosensor chip through injection of a 0.5 mM solution of the phosphopeptide, in 50 mM HEPES, pH 7.5 and 2 M NaCl, across the chip surface previously activated following procedures outlined by the manufacturer. Injection of anti-phosphotyrosine antibody was used to confirm that successful immobilization of the peptide was achieved. Solutions (100 μl) containing 1 μM GST-Shc PTB domain fusion protein and the indicated concentrations of soluble phosphopeptide in 50 mM Na phosphate, pH 7.5, 150 mM NaCl, 0.1 mM EDTA, and 2 mM DTT, were injected across the surface. The amount of bound GST-Shc PTB domain was estimated from the surface plasmon resonance signal at a fixed time following the end of the injection and the percentage bound, relative to injection of GST-Shc PTB domain alone, calculated. The surface was regenerated using 2 M Guanidinium-HCl.

SMILES	IC50
C[C@H](NC(=O)[C@H](C)NC(=O)[C@@H](N)Cc1c[nH]cn1)C(=O)N[C@@H](CCC(=O)O)C(=O)N[C@@H](CC(N)=O)C(=O)N1CCC[C@H]1C(=O)N[C@@H](CCC(N)=O)C(=O)N[C@@H](Cc1ccc(OP(=O)(O)O)cc1)C(=O)N[C@@H](Cc1ccccc1)C(=O)N[C@@H](CO)C(=O)N[C@@H](CC(=O)O)C(=O)O [H-A-A-E-N-P-Q-P.Y-F-S-D, H-A-A-E-N-P-Q-p.Y-F-S-D] (H-HAAENPQ[pY]FSD-OH)	475 nM
CC[C@H](C)[C@H](NC(=O)[C@H](C)NC(=O)[C@@H](N)Cc1c[nH]cn1)C(=O)N[C@@H](CCC(=O)O)C(=O)N[C@@H](CC(N)=O)C(=O)N1CCC[C@H]1C(=O)N[C@@H](CCC(N)=O)C(=O)N[C@@H](Cc1ccc(OP(=O)(O)O)cc1)C(=O)N[C@@H](Cc1ccccc1)C(=O)N[C@@H](CO)C(=O)N[C@@H](CC(=O)O)C(=O)O [H-A-I-E-N-P-Q-P.Y-F-S-D, His-Ala-Ile-Glu-Asn-Pro-Gln-P.Tyr-Phe-Ser-Asp] (H-HAIENPQ[pY]FSD-OH)	20 nM
CC[C@H](C)[C@H](NC(=O)[C@@H](N)Cc1c[nH]cn1)C(=O)N[C@@H](C)C(=O)N[C@@H](CCC(=O)O)C(=O)N[C@@H](CC(N)=O)C(=O)N1CCC[C@H]1C(=O)N[C@@H](CCC(N)=O)C(=O)N[C@@H](Cc1ccc(OP(=O)(O)O)cc1)C(=O)N[C@@H](Cc1ccccc1)C(=O)N[C@@H](CO)C(=O)N[C@@H](CC(=O)O)C(=O)O [H-I-A-E-N-P-Q-P.Y-F-S-D, His-Ile-Ala-Glu-Asn-Pro-Gln-P.Tyr-Phe-Ser-Asp] (H-HIAENPQ[pY]FSD-OH)	250 nM
CC[C@H](C)[C@H](NC(=O)[C@@H](NC(=O)[C@@H](N)Cc1c[nH]cn1)[C@@H](C)CC)C(=O)N[C@@H](CCC(=O)O)C(=O)N[C@@H](CC(N)=O)C(=O)N1CCC[C@H]1C(=O)N[C@@H](CCC(N)=O)C(=O)N[C@@H](Cc1ccc(OP(=O)(O)O)cc1)C(=O)N[C@@H](Cc1ccccc1)C(=O)N[C@@H](CO)C(=O)N[C@@H](CC(=O)O)C(=O)O [H-I-I-E-N-P-Q-P.Y-F-S-D, His-Ile-Ile-Glu-Asn-Pro-Gln-P.Tyr-Phe-Ser-Asp] (H-HIIENPQ[pY]FSD-OH)	175 nM
CC[C@H](C)[C@H](N)C(=O)N[C@@H](CCC(=O)O)C(=O)N[C@@H](CC(N)=O)C(=O)N1CCC[C@H]1C(=O)N[C@@H](CCC(N)=O)C(=O)N[C@@H](Cc1ccc(OP(=O)(O)O)cc1)C(=O)N[C@@H](Cc1ccccc1)C(=O)N[C@@H](CO)C(=O)N[C@@H](CC(=O)O)C(=O)O [IENPQpYFSD] (H-IENPQ[pY]FSD-OH)	4000 nM

Same assay, conditions: peptide concentration inhibiting by 50% binding of 1 μM GST-Shc PTB domain to immobilized polyoma middle T antigen phosphopeptide; read-out: IC 50

SMILES	IC50
C[C@H](NC(=O)[C@@H](N)Cc1c[nH]cn1)C(=O)N[C@@H](CO)C(=O)N[C@@H](CCC(=O)O)C(=O)N[C@@H](CC(N)=O)C(=O)N1CCC[C@H]1C(=O)N[C@@H](CCC(N)=O)C(=O)N[C@@H](Cc1ccc(OP(=O)(O)O)cc1)C(=O)N[C@@H](Cc1ccccc1)C(=O)N[C@@H](CO)C(=O)N[C@@H](CC(=O)O)C(=O)O [H-A-S-E-N-P-Q-P.Y-F-S-D, H-A-S-E-N-P-Q-p.Y-F-S-D] (H-HASENPQ[pY]FSD-OH)	15000 nM
CC[C@H](C)[C@H](NC(=O)[C@@H](NC(=O)[C@@H](N)Cc1c[nH]cn1)[C@@H](C)CC)C(=O)N[C@@H](CCC(=O)O)C(=O)N[C@@H](C)C(=O)N1CCC[C@H]1C(=O)N[C@@H](CCC(N)=O)C(=O)N[C@@H](Cc1ccc(OP(=O)(O)O)cc1)C(=O)N[C@@H](Cc1ccccc1)C(=O)N[C@@H](CO)C(=O)N[C@@H](CC(=O)O)C(=O)O [H-I-I-E-A-P-Q-P.Y-F-S-D, His-Ile-Ile-Glu-Ala-Pro-Gln-P.Tyr-Phe-Ser-Asp] (H-HIIEAPQ[pY]FSD-OH)	80000 nM
CC[C@H](C)[C@H](NC(=O)[C@@H](NC(=O)[C@@H](N)Cc1c[nH]cn1)[C@@H](C)CC)C(=O)N[C@@H](CCC(=O)O)C(=O)N[C@@H](CC(N)=O)C(=O)N[C@@H](C)C(=O)N[C@@H](CCC(N)=O)C(=O)N[C@@H](Cc1ccc(OP(=O)(O)O)cc1)C(=O)N[C@@H](Cc1ccccc1)C(=O)N[C@@H](CO)C(=O)N[C@@H](CC(=O)O)C(=O)O [H-I-I-E-N-A-Q-P.Y-F-S-D, His-Ile-Ile-Glu-Asn-Ala-Gln-P.Tyr-Phe-Ser-Asp] (H-HIIENAQ[pY]FSD-OH)	2500 nM
CC[C@H](C)[C@H](NC(=O)[C@H](C)NC(=O)[C@@H](N)Cc1ccc(O)cc1)C(=O)N[C@@H](CO)C(=O)N[C@@H](CC(N)=O)C(=O)N1CCC[C@H]1C(=O)N[C@@H](CCC(=O)O)C(=O)N[C@@H](Cc1ccc(OP(=O)(O)O)cc1)C(=O)N[C@@H](CC(C)C)C(=O)N[C@@H](CO)C(=O)N[C@@H](C)C(=O)O [Y-A-I-S-N-P-E-P.Y-L-S-A, Tyr-Ala-Ile-Ser-Asn-Pro-Glu-P.Tyr-Leu-Ser-Ala] (H-YAISNPE[pY]LSA-OH)	90 nM
CC(C)C[C@H](NC(=O)[C@H](Cc1ccc(OP(=O)(O)O)cc1)NC(=O)[C@H](CCC(=O)O)NC(=O)[C@@H]1CCCN1C(=O)[C@H](CC(N)=O)NC(=O)[C@H](CO)NC(=O)[C@H](CO)NC(=O)[C@H](C)NC(=O)[C@@H](N)Cc1ccc(O)cc1)C(=O)N[C@@H](CO)C(=O)N[C@@H](C)C(=O)O [Y-A-S-S-N-P-E-P.Y-L-S-A, Y-A-S-S-N-P-E-p.Y-L-S-A] (H-YASSNPE[pY]LSA-OH)	7000 nM

The compounds below were run against T2, Shc PTB domain (GST-ShcB) binding to activated EGF-R (Homo sapiens, UniProt P29353) (assay: In vitro binding assay: competitive inhibition of EGF receptor binding to GST-ShcB in HER14 lysates). Settings: 100 μM; FIG. 10 Panel A; read-out: inhibition of association of Shc and EGF-R.
T2 construct: made in house
T2 sequence (P29353 156-339 limits assumed): T1 sequence (P29353 156-339 limits assumed)
Experimental: HER14 cells (3T3 cells expressing EGF-R) were starved in 0.5% CS media for 24 hours and stimulated with 100 ng/ml EGF for 5 min. Cells were lysed and mixed with GST, GST-ShcB or GST-R175M beads. Proteins which bound to beads were resolved on SDS-PAGE and detected by anti-phospho-Tyr antibody (4G10) or by anti-EGF-R.
The peptides listed in Table 2 were added to cell lysates at 5 μM, incubated for 30 min., and treated with GST-ShcB beads. Proteins bound to GST-ShcB were detected by anti-phospho-Tyr antibody. […] The experiment was repeated with the peptides dissolved in DMSO (FIG. 9).

SMILES	inhibition at 100 µM
CC[C@H](C)[C@@H]1NC(=O)CNC(=O)[C@@H]2CCCN2C(=O)[C@H](CO)NC(=O)[C@H](Cc2ccccc2)NC(=O)[C@H](Cc2ccc(OP(=O)(O)O)cc2)NC(=O)[C@H](CCC(N)=O)NC(=O)[C@@H]2CCCN2C(=O)[C@H](CC(N)=O)NC(=O)[C@H](CCC(=O)O)NC1=O [C-1, Cyclo-(IENPQpYFSPG)] (cyclo(ENPQ[pY]FSPGI))	~50%

Same assay, conditions: dose response, cyclic peptides, 5 μM; FIG. 10 Panel A

SMILES	inhibition of association of Shc and EGF-R
NC(=O)CC[C@@H]1NC(=O)[C@@H]2CCCN2C(=O)[C@H](CC(N)=O)NC(=O)[C@H](Cc2ccc(OP(=O)(O)O)cc2)NC1=O [C-3, Cyclo-(NPQpY)] (cyclo(NPQ[pY]))	did not inhibit
NC(=O)CC[C@@H]1NC(=O)[C@@H]2CCCN2C(=O)[C@H](CC(N)=O)NC(=O)CNC(=O)[C@H](Cc2ccc(OP(=O)(O)O)cc2)NC1=O [C-4, Cyclo-(NPQpYG)] (cyclo(GNPQ[pY]))	did not inhibit
NC(=O)CC[C@@H]1NC(=O)[C@@H]2CCCN2C(=O)[C@H](CC(N)=O)NC(=O)CNC(=O)CNC(=O)[C@H](Cc2ccc(OP(=O)(O)O)cc2)NC1=O [C-5, Cyclo-(NPQpYGG)] (cyclo(GGNPQ[pY]))	did not inhibit
